Source: ChEMBL document CHEMBL5335860, “Imidazole Bioisostere Activators of Endopeptidase Neurolysin with Enhanced Potency and Metabolic Stability” (ACS Med Chem Lett, 2024)
Active and inactive are the calls of the source. The calls are words filed in the database; no cut-off is given here. Peptide text beside a SMILES is read from it. * marks the point of attachment. NHPhenethyl = c1ccc(CCN*)cc1

Assays:
[1] = target: T1, Neurolysin, mitochondrial (Homo sapiens, UniProt Q9BYT8); experiment: Activation of Nln (unknown origin) using Mca-Pro-Leu-Gly-Pro-D-Lys(DNP)- OH as substrate preincubated for 10 mins followed by substrate addition measured for 20 mins by fluorescence based assay relative to control; details: filed as activator, time 30.0 min
Target sequence in this assay (Q9BYT8 38-704 limits assumed): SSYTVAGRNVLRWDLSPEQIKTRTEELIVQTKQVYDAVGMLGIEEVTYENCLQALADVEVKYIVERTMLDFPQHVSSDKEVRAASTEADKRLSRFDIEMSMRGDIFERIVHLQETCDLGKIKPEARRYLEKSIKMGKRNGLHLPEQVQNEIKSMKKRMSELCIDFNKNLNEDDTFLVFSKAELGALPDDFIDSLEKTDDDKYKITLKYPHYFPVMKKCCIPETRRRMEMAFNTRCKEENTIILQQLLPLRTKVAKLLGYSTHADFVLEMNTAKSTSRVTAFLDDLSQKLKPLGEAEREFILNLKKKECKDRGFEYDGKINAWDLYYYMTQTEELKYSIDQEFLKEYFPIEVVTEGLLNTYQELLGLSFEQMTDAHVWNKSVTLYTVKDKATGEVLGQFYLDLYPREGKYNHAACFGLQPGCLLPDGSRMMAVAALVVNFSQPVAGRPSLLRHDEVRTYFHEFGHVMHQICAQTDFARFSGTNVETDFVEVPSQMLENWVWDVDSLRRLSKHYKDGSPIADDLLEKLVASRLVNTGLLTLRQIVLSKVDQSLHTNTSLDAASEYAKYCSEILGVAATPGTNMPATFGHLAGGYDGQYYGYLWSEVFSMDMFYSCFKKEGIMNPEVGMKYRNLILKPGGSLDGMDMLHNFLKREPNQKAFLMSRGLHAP

[2] = target: T1, Neurolysin, mitochondrial; experiment: Activation of Nln (unknown origin) using Mca-Pro-Leu-Gly-Pro-D-Lys(DNP)- OH as substrate preincubated for 10 mins followed by substrate addition measured for 20 mins by fluorescence based assay
Target sequence in this assay (Q9BYT8 whole entry): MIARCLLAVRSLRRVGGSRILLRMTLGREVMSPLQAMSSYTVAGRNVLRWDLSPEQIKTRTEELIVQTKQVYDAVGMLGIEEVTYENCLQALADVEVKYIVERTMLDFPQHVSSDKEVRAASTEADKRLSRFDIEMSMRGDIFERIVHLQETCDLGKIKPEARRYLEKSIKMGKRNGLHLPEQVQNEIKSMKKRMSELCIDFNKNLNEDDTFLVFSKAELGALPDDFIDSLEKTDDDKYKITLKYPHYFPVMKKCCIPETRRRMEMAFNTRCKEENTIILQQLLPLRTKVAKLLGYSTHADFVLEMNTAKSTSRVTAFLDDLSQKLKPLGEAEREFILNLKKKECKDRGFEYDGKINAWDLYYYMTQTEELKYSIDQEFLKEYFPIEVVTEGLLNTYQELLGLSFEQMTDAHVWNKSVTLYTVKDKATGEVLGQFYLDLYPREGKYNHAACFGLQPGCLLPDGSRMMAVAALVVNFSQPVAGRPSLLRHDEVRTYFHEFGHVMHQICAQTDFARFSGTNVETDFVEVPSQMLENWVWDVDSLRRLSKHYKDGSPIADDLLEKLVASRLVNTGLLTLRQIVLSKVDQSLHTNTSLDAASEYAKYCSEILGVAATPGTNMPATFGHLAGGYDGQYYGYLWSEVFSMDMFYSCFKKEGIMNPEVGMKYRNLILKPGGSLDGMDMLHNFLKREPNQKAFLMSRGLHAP

[3] = Permeability coefficient in co-culture of primary mouse astrocytes and immortalized mouse endothelial cells at 10 ug/ml by BBB assay; assay type: ADME; details: dose 10 µg/ml, read-out: Kp (converted)
[4] = Half life in mouse brain at 500 ng/ml measured for 4 hrs by LC-MS/MS analysis; assay type: ADME, tissue-based
[5] = target: Neprilysin (Homo sapiens) (UniProt P08473); experiment: Inhibition of N-terminal polyhis-tagged recombinant human neprilysin (52 to 750 residues) expressed in HEK293 cells; assay type: cell-based
[6] = target: Thimet oligopeptidase (Homo sapiens) (UniProt P52888); experiment: Inhibition of recombinant THOP1 (unknown origin)
[7] = target: Angiotensin-converting enzyme (Homo sapiens) (UniProt P12821); experiment: Inhibition of C-terminal 10-His-tagged recombinant human ACE (30 to 1261 residues) expressed in mouse myeloma cells; details: Multiple myeloma cell
[8] = Half life in mouse plasma at 500 ng/ml measured for 4 hrs by LC-MS/MS analysis; assay type: ADME, cell-free
[9] = target: Angiotensin-converting enzyme 2 (Homo sapiens) (UniProt Q9BYF1); experiment: Inhibition of C-terminal polyhis-tagged recombinant human ACE2 (1 to 740 residues) expressed in HEK293 cells; assay type: cell-based
[10] = target: Angiotensin-converting enzyme (Homo sapiens) (UniProt P12821); experiment: Inhibition of C-terminal 10-His-tagged recombinant human ACE (30 to 1261 residues) expressed in mouse myeloma cells relative to control; details: concentration not given here
[11] = target: Thimet oligopeptidase (Homo sapiens) (UniProt P52888); experiment: Inhibition of recombinant THOP1 (unknown origin) relative to control; details: concentration not given here
[12] = target: Neprilysin (Homo sapiens) (UniProt P08473); experiment: Inhibition of N-terminal polyhis-tagged recombinant human neprilysin (52 to 750 residues) expressed in HEK293 cells relative to control; assay type: cell-based; details: concentration not given here
[13] = target: Angiotensin-converting enzyme 2 (Homo sapiens) (UniProt Q9BYF1); experiment: Inhibition of C-terminal polyhis-tagged recombinant human ACE2 (1 to 740 residues) expressed in HEK293 cells relative to control; assay type: cell-based; details: concentration not given here
[14] = Drug concentration in brain of MCAO mouse model at 4 mg/kg, iv measured after 30 mins; assay type: ADME, organism-based; details: read-out: Ct
[15] = Elimination half life in MCAO mouse model at 4 mg/kg, iv; assay type: ADME, organism-based; details: in vivo, read-out: beta t1/2

Neprilysin (Homo sapiens), sequence (P08473 whole entry, the tested form may be a part): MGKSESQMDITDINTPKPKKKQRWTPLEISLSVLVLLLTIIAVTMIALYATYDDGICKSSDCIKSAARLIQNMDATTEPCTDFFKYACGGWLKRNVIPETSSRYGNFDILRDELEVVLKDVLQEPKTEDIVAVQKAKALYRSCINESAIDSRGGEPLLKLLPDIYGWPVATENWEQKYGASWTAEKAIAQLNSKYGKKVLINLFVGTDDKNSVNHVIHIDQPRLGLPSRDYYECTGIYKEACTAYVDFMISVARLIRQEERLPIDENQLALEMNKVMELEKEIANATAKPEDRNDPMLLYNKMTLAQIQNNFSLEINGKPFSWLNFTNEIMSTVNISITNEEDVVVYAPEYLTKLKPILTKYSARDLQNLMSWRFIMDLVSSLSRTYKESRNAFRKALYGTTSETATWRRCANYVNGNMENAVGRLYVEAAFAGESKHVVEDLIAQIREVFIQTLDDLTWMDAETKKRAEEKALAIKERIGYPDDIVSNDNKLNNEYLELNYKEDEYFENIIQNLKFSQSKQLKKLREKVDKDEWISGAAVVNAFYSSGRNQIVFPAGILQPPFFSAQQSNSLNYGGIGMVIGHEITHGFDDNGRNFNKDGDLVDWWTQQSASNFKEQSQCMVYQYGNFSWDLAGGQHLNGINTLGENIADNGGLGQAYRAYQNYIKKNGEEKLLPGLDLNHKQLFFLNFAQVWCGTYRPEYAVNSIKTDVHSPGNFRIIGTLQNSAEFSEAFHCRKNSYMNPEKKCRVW
Angiotensin-converting enzyme 2 (Homo sapiens), sequence (Q9BYF1 18-805 limits assumed): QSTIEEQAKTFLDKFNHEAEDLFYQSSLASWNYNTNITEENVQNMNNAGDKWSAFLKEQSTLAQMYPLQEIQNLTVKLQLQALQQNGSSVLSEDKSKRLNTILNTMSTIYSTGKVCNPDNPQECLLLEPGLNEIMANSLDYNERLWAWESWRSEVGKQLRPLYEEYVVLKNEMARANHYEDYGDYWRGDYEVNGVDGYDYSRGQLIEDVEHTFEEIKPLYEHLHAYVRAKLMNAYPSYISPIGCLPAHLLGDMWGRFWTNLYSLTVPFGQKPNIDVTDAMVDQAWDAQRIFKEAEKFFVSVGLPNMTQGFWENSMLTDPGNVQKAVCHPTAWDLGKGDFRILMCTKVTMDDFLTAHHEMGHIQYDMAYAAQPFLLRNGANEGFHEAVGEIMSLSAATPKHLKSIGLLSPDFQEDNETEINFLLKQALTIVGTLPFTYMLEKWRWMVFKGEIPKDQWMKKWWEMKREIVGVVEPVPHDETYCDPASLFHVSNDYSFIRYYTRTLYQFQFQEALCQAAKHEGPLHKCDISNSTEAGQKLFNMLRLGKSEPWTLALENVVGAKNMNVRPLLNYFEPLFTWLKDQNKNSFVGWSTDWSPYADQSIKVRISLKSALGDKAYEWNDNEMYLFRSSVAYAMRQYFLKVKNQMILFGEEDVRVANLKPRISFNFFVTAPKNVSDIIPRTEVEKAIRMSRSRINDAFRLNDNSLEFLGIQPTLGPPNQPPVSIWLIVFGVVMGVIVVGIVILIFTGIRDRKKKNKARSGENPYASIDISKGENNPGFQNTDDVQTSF
Angiotensin-converting enzyme (Homo sapiens), sequence (P12821 whole entry, the tested form may be a part): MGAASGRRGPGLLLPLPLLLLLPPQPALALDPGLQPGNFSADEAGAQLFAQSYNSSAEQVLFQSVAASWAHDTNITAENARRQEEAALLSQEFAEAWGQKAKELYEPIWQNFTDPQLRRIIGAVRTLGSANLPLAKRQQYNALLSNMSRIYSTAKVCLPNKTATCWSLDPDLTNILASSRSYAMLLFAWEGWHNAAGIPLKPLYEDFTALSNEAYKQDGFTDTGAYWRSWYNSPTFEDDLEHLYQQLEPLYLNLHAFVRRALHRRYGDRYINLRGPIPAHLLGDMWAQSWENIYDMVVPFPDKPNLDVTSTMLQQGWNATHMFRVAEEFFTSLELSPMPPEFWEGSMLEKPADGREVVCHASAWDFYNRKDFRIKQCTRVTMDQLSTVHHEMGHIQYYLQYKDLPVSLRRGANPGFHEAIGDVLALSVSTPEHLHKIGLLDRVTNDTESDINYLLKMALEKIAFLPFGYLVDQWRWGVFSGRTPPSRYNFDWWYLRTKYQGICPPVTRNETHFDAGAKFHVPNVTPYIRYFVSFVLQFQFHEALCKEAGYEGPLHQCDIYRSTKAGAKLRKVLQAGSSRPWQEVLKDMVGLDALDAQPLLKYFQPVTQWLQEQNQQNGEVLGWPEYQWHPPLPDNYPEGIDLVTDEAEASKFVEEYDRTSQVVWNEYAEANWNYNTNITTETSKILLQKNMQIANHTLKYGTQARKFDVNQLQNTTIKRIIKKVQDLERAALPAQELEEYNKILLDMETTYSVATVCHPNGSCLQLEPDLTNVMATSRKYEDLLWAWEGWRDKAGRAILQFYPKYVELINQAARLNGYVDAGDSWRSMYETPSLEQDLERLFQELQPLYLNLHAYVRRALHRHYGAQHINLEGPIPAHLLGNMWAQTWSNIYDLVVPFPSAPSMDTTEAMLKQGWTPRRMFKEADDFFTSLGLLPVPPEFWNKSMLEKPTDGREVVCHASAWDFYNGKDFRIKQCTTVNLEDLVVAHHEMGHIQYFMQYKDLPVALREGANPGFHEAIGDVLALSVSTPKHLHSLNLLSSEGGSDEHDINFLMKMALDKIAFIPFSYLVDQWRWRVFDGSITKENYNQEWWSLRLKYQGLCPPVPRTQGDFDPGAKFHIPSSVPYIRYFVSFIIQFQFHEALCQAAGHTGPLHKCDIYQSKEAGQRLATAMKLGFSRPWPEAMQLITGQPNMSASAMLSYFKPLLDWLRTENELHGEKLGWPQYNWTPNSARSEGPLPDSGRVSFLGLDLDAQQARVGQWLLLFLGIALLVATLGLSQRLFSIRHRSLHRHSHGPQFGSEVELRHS
Thimet oligopeptidase (Homo sapiens), sequence (P52888 whole entry, the tested form may be a part): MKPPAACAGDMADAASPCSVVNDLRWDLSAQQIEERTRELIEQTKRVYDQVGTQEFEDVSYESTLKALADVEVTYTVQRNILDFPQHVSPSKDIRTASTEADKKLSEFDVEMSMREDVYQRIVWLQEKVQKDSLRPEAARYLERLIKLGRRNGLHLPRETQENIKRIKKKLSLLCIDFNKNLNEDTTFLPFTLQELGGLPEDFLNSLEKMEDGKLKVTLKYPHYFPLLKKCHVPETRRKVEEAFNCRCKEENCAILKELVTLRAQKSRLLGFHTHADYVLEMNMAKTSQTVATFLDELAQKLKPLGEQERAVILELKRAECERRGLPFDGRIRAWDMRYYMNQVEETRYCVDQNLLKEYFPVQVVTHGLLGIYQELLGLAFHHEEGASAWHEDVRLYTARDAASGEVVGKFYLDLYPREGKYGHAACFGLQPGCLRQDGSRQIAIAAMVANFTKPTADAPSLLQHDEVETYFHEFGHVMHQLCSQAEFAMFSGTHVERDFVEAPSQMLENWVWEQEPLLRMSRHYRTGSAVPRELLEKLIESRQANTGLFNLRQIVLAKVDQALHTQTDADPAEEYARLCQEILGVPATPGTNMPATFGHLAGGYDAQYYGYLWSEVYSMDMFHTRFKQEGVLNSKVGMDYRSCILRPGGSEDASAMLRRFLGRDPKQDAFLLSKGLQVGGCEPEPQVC

Compound | Emax [1] | EC50 ([2]; read-out: EC50) | also measured
N[C@H](Cc1c[nH]cn1)c1ncc(-c2ccc(Cl)cc2)[nH]1 | 282% | 2 µM | Papp at 10 ug/ml [3]: 6 ×10⁻⁶ cm/s; half-life at 500 ng/ml [4]: 1.81 h; inhibition [5]: inactive; inhibition [6]: inactive; inhibition [7]: inactive; half-life at 500 ng/ml [8]: 8.15 h; inhibition [9]: inactive
N[C@H](Cc1c[nH]cn1)c1ncc(-c2ccc3ccccc3c2)[nH]1 | 138% | 6.8 µM | 
N[C@@H](Cc1c[nH]cn1)C(=O)N(CCc1c[nH]c2ccccc12)Cc1ccccc1 | 307% | 5.2 µM | 
N[C@@H](Cc1c[nH]cn1)C(=O)N[C@@H](Cc1ccccc1)C(=O)NCCc1ccccc1 (H-His-Phe-NHPhenethyl) | 178% | 5.4 µM | 
N[C@@H](Cc1c[nH]cn1)C(=O)N[C@@H](Cc1ccccc1)C(=O)NCc1cccc2ccccc12 |  |  | EC50 [2]: Not Active
N[C@@H](Cc1c[nH]cn1)c1ncc(-c2ccc(Cl)cc2)[nH]1 | 318% | 2.9 µM | 
N[C@@H](Cc1c[nH]cn1)C(=O)Nc1ccccc1 | 467% | 252 µM | 
N[C@@H](Cc1c[nH]cn1)C(=O)NCc1cccc2ccccc12 | 264% |  | Papp at 10 ug/ml [3]: 18.3 ×10⁻⁶ cm/s; half-life at 500 ng/ml [4]: 1.34 h; half-life at 500 ng/ml [8]: > 16.7 h
N[C@@H](Cc1c[nH]cn1)c1ncc(-c2ccc3ccccc3c2)[nH]1 | 268% | 5.5 µM | 
N[C@@H](Cc1c[nH]cn1)C(=S)NCc1cccc2ccccc12 | 279% | 3.4 µM | 
N[C@@H](Cc1c[nH]cn1)C(=O)NCCc1ccc(F)cc1 |  | 11.6 µM | 
N[C@@H](Cc1c[nH]cn1)c1ncc(-c2cccc3ccccc23)[nH]1 | 244% | 4.1 µM | inhibition [10]: 20%; inhibition [11]: 20%; Papp at 10 ug/ml [3]: 13.8 ×10⁻⁶ cm/s; half-life at 500 ng/ml [4]: 1.77 h; half-life at 500 ng/ml [8]: > 16.7 h; inhibition [12]: 20%; inhibition [13]: 20%
N[C@@H](Cc1c[nH]cn1)C(=O)N[C@@H](Cc1ccccc1)C(=O)O (H-His-Phe-OH) |  | 85.5 µM | Papp at 10 ug/ml [3]: 1.17 ×10⁻⁶ cm/s; half-life at 500 ng/ml [8]: 0.57 h
CN(Cc1cccc2ccccc12)C(=O)[C@@H](N)Cc1c[nH]cn1 | 345% | 3.8 µM | 
N[C@@H](Cc1c[nH]cn1)C(=O)Nc1cccc2cccnc12 |  | 7 µM | concentration at 0.5 h [14]: 260 nM; Papp at 10 ug/ml [3]: 19 ×10⁻⁶ cm/s; half-life [15]: 0.5 h
N[C@@H](Cc1c[nH]cn1)C(=O)N1CCc2ccccc2C1 | 380% | 32.6 µM | 
N[C@H](Cc1c[nH]cn1)C(=O)N1CCC(Cc2ccccc2F)CC1 | 272% | 5.4 µM | 
CC(C)[C@H](NC(=O)[C@@H](N)Cc1c[nH]cn1)C(=O)NCc1cccc2ccccc12 |  |  | EC50 [2]: Not Active
CN(Cc1cccc2ccccc12)C(=O)[C@H](N)Cc1c[nH]cn1 | 324% | 3.6 µM | 
N[C@@H](Cc1c[nH]cn1)C(=O)N1CCC(Cc2ccccc2F)CC1 | 237% | 4.3 µM | 
N[C@@H](Cc1c[nH]cn1)C(=O)NCCc1ccc(Cl)cc1 | 404% | 25 µM | 
N[C@@H](Cc1c[nH]cn1)C(=O)NCc1ccc2ccccc2c1 | 211% | 4.4 µM | 
N[C@@H](Cc1c[nH]cn1)C(=O)NCC(=O)c1ccc2ccccc2c1 |  |  | EC50 [2]: Not Active
N[C@@H](Cc1c[nH]cn1)C(=O)NCC(=O)c1ccc(Cl)cc1 | 130% | 33.7 µM | 
